# Results published in US7504403B2, “Substituted heterocyclic compounds and methods of use” (Amgen Inc., priority 2004, dated 2009).
# Tested on: LPS induced TNF release
# Experiment: Lipopolysaccharide-Activated THP1 Cell TNF Production Assay
# Type: cell-based
# Details: Homo sapiens, THP-1
# Experimental: Lipopolysaccharide-Activated THP1 Cell TNF Production Assay
# THP1 cells are resuspended in fresh THP1 media (RPMI 1640, 10% heat-inactivated FBS, 1×PGS, 1×NEAA, plus 30 μM βME) at a concentration of 1E6/mL. One hundred microliters of cells per well are plated in a polystyrene 96-well tissue culture. One microgram per mL of bacterial LPS is prepared in THP1 media and is transferred to the wells. Test compounds are dissolved in 100% DMSO and are serially diluted 3 fold in a polypropylene 96-well microtiter plate (drug plate). HI control and LO control wells contain only DMSO. One microliter of test compound from the drug plate followed by 10 μL of LPS are transferred to the cell plate. The treated cells are induced to synthesize and secrete TNF-α at 37° C. for 3 h. Forty microliters of conditioned media are transferred to a 96-well polypropylene plate containing 110 μL of ECL buffer (50 mM Tris-HCl pH 8.0, 100 mM NaCl, 0.05% Tween 20, 0.05% NaN3 and 1%FBS) supplemented with 0.44 nM MAB610 monoclonal Ab (R&D Systems), 0.34 nM ruthenylated AF210NA polyclonal Ab (R&D Systems) and 44 μg/mL sheep anti-mouse M280 Dynabeads (Dynal). After a 2 h incubation at room temperature with shaking, the reaction is read on the ECL M8 Instrument (IGEN Inc.). A low voltage is applied to the ruthenylated TNF-α immune complexes, which in the presence of TPA (the active component in Origlo), results in a cyclical redox reaction generating light at […]. The amount of secreted TNF-α in the presence of compound compared with that in the presence of DMSO vehicle alone (HI control) is calculated using the formula: % control (POC)=(cpd−average LO)/(average HI−average LO)*100. Data (consisting of POC and inhibitor concentration in μM) is fitted to a 4-parameter equation (y=A+((B−A)/(1+((x/C)^D))), where A is the minimum y (POC) value, B is the maximum y (POC), C is the x (cpd concentration) at the point of inflection and D is the slope factor) using a Levenburg-Marquardt non-linear regression algorithm.
row,SMILES,IC50
1,"CC(C)NCCC1CN(c2ccnc(NCCc3ccccc3)n2)c2nc(-c3ccccc3)cc(=O)n2C1 (stereo not drawn) [Example 50, 7-(2-Isopropylamino-ethyl)-9-(2-phenethylamino-pyrimidin-4-yl) -2-phenyl-6,7,8,9-tetrahydro-pyrimido[1,2-a]pyrimidin-4-one]",≤ 20 µM
2,"O=c1cc(-c2ccccc2)cc2n1CCN2c1ccnc(NCCc2ccccc2)n1 [Example 87, 1-(2-Phenethylamino-pyrimidin-4-yl)-7-phenyl-2,3-dihydro-1H-imidazo[1,2-a]pyridin-5-one]",≤ 20 µM
3,"Cc1ccc(-c2cc(=O)n3c(n2)N(c2ccnc(N[C@@H](C)c4ccccc4)n2)CCC3)cc1C [Example 1, 2-(3,4-Dimethyl-phenyl)-9-[2-(1(S)-phenyl-ethylamino) -pyrimidin-4-yl]-6,7,8,9-tetrahydro-pyrimido[1,2-a]pyrimidin-4-one]",≤ 20 µM
4,"C[C@H](Nc1nccc(N2CCCn3c2nc(-c2cccc([N+](=O)[O-])c2)cc3=O)n1)c1ccccc1 [Example 6, 2-(3-nitrophenyl)-9-[2-(1(S)-phenyl-ethylamino)-pyrimidin-4-yl]-6,7,8,9-tetrahydro-pyrimido[1,2-a]pyrimidin-4-one]",≤ 20 µM
5,"C[C@H](Nc1nccc(N2CCCn3c2nc(-c2ccccc2C(F)(F)F)cc3=O)n1)c1ccccc1 [Example 3, 2-(2-trifluoromethylphenyl)-9-[2-(1(S)-phenyl-ethylamino) -pyrimidin-4-yl]-6,7,8,9-tetrahydro-pyrimido[1,2-a]pyrimidin-4-one]",≤ 20 µM
6,"CC(Cc1cccc(CO)c1)Nc1nccc(N2CCCn3c2nc(-c2ccccc2)cc3=O)n1 (stereo not drawn) [Example 47, 9-{2-[2-(3-Hydroxymethyl-phenyl)-1-methyl-ethylamino]-pyrimidin-4-yl}-2-phenyl-6,7,8,9-tetrahydro-pyrimido[1,2-a]pyrimidin-4-one]",≤ 20 µM
7,"CC(Cc1cccc(CO)c1)Nc1nccc(N2CCCn3c2cc(-c2ccccc2)cc3=O)n1 (stereo not drawn) [Example 83, 1-{2-[2-(3-Hydroxymethyl-phenyl)-1-methyl-ethylamino]-pyrimidin-4-yl}-8-phenyl-1,2,3,4-tetrahydro-pyrido[1,2-a]pyrimidin-6-one]",≤ 20 µM
8,"O=c1cc(-c2ccccc2)cc2n1CCCN2c1cc(NCCc2ccccc2Cl)ncn1 [Example 86, 1-{6-[2-(2-Chloro-phenyl)-ethylamino]-pyrimidin-4-yl}-8-phenyl-1,2,3,4-tetrahydro-pyrido[1,2-a]pyrimidin-6-one]",≤ 20 µM
9,"CC(Cc1cccc(CO)c1)Nc1nccc(N2CCn3c2cc(-c2ccccc2)cc3=O)n1 (stereo not drawn) [Example 88, 1-{2-[2-(3-Hydroxymethyl-phenyl)-1-methyl-ethylamino]-pyrimidin-4-yl}-7-phenyl-2,3-dihydro-1H-imidazo[1,2-a]pyridin-5-one]",≤ 20 µM
10,"O=c1cc(-c2ccccc2)cc2n1CCCN2c1cc(NCCc2ccccc2)ncn1 [Example 85, 1-(6-Phenethylamino-pyrimidin-4-yl)-8-phenyl-1,2,3,4-tetrahydro-pyrido[1,2-a]pyrimidin-6-one]",≤ 20 µM
11,"CC(N)Cc1ccc(CC(C)Nc2nccc(N3CCC(=O)N4CC=C(c5ccccc5)N=C43)n2)cc1 (stereo not drawn) [Example 64, 1-(2-{2-[4-(2-Amino-propyl)-phenyl]-1-methyl-ethylamino}-pyrimidin-4-yl)-8-phenyl-1,2,3,6-tetrahydro-pyrimido[1,2-a]pyrimidin-4-one]",≤ 20 µM
12,"C[C@H](Nc1nccc(N2CCCn3c2nc(-c2cccc(N)c2)cc3=O)n1)c1ccccc1 [Example 7, 2-(3-aminophenyl)-9-[2-(1(S)-phenyl-ethylamino)-pyrimidin-4-yl]-6,7,8,9-tetrahydro-pyrimido[1,2-a]pyrimidin-4-one]",≤ 20 µM
13,"CC(Cc1ccc(CN)cc1)Nc1nccc(N2CCC(=O)N3CC=C(c4ccccc4)N=C32)n1 (stereo not drawn) [Example 63, 1-{2-[2-(4-Aminomethyl-phenyl)-1-methyl-ethylamino]-pyrimidin-4-yl}-8-phenyl-1,2,3,6-tetrahydro-pyrimido[1,2-a]pyrimidin-4-one]",≤ 20 µM
14,"CC(Cc1cccc(C(C)(C)N)c1)Nc1nccc(N2CCC(=O)N3CC=C(c4ccccc4)N=C32)n1 (stereo not drawn) [Example 65, 1-(2-{2-[3-(1-Amino-1-methyl-ethyl)-phenyl]-1-methyl-ethylamino}-pyrimidin-4-yl)-8-phenyl-1,2,3,6-tetrahydro-pyrimido[1,2-a]pyrimidin-4-one]",≤ 20 µM
15,"O=c1cc(-c2ccccc2)cc2n1CCCN2c1ccnc(NCCc2ccccc2Cl)n1 [Example 75, 1-{2-[2-(2-Chloro-phenyl)-ethylamino]-pyrimidin-4-yl}-8-phenyl-1,2,3,4-tetrahydro-pyrido[1,2-a]pyrimidin-6-one]",≤ 20 µM
16,"COc1ccc([C@H](C)Nc2nccc(N3CCCn4c3cc(-c3ccccc3)cc4=O)n2)cc1 [Example 80, 1-{2-[(1S)-(4-Methoxy-phenyl)-ethylamino]-pyrimidin-4-yl}-8-phenyl-1,2,3,4-tetrahydro-pyrido[1,2-a]pyrimidin-6-one]",≤ 20 µM
17,"CC(C)NCc1cccc(CC(C)Nc2nccc(N3CCCn4c3nc(-c3ccccc3)cc4=O)n2)c1 (stereo not drawn) [Example 19, 9-(2-{2-[3-(Isopropylamino-methyl)-phenyl]-1-methyl-ethylamino}-pyrimidin-4-yl) -2-phenyl-6,7,8,9-tetrahydro-pyrimido[1,2-a]pyrimidin-4-one]",≤ 20 µM
18,"COc1ccc(-c2cc(=O)n3c(n2)N(c2ccnc(N[C@@H](C)c4ccccc4)n2)CCC3)cc1 [Example 5, 2-(4-methoxyphenyl)-9-[2-(1(S)-phenyl-ethylamino)-pyrimidin-4-yl]-6,7,8,9-tetrahydro-pyrimido[1,2-a]pyrimidin-4-one]",≤ 20 µM

# Continued, values first:
row,IC50,SMILES
1,≤ 20 µM,C[C@H](Nc1nccc(N2CCCn3c2cc(-c2ccccc2)cc3=O)n1)c1ccccc1 [Example 78]
2,≤ 20 µM,"C[C@H](Cc1cccc(CN)c1)Nc1nccc(N2CCCn3c2nc(-c2ccccc2)cc3=O)n1 [9-{2-[2-(3-aminomethyl-phenyl)-1(R)-methyl-ethylamino]-pyrimidin-4-yl}-2-phenyl-6,7,8,9-tetrahydro-pyrimido[1,2-a]pyrimidin-4-one]"
3,≤ 20 µM,"O=c1cc(-c2ccccc2)cc2n1CCCN2c1ccnc(NCCc2c(Cl)cccc2Cl)n1 [Example 76, 1-{2-[2-(2,6-Dichloro-phenyl)-ethylamino]-pyrimidin-4-yl}-8-phenyl-1,2,3,4-tetrahydro-pyrido[1,2-a]pyrimidin-6-one]"
4,≤ 20 µM,C[C@H](CNc1nccc(N2CCCn3c2cc(-c2ccccc2)cc3=O)n1)c1ccccc1 [Example 79]
5,≤ 20 µM,"Nc1nccc(N2CCCn3c2nc(-c2ccccc2)cc3=O)n1 [Example 38, 9-(2-{2-amino}-pyrimidin-4-yl)-2-phenyl-6,7,8,9-tetrahydro-pyrimido[1,2-a]pyrimidin-4-one]"
6,≤ 20 µM,"O=c1cc(-c2ccccc2)cc2n1CCN2c1cncc(NCCc2ccccc2)n1 [Example 89, 1-(6-Phenethylamino-pyrazin-2-yl)-7-phenyl-2,3-dihydro-1H-imidazo[1,2-a]pyridin-5-one]"
7,≤ 20 µM,"C[C@H](Nc1nccc(N2CCCn3c2nc(-c2ccc(F)cc2)cc3=O)n1)c1ccccc1 [Example 4, 2-(4-fluorophenyl)-9-[2-(1(S)-phenyl-ethylamino)-pyrimidin-4-yl]-6,7,8,9-tetrahydro-pyrimido[1,2-a]pyrimidin-4-one]"
8,≤ 20 µM,"CC(Nc1nccc(N2CC(O)Cn3c2nc(-c2ccccc2)cc3=O)n1)c1ccccc1 (stereo not drawn) [Example 66, 7-Hydroxy-2-phenyl-9-[2-(1-phenyl-ethylamino)-pyrimidin-4-yl]-6,7,8,9-tetrahydro-pyrimido[1,2-a]pyrimidin-4-one]"
9,≤ 20 µM,"C[C@@H](Cc1cccc(CN)c1)Nc1nccc(N2CCCn3c2nc(-c2ccccc2)cc3=O)n1 [Example 49, 9-{2-[2-(3-Aminomethyl-phenyl)-1(S)-methyl-ethylamino]-pyrimidin-4-yl}-2-phenyl-6,7,8,9-tetrahydro-pyrimido[1,2-a]pyrimidin-4-one]"
10,≤ 20 µM,"O=c1cc(-c2ccccc2)nc2n1CCCN2c1ccnc(NCc2ccccc2)n1 [Example 29, 9-(2-{2-(benzyl)amino}-pyrimidin-4-yl)-2-phenyl-6,7,8,9-tetrahydro-pyrimido[1,2-a]pyrimidin-4-one]"
11,≤ 20 µM,"C[C@H](Nc1nccc(N2CCCn3c2nc(-c2ccccc2F)cc3=O)n1)c1ccccc1 [Example 2, 2-(2-fluorophenyl)-9-[2-(1(S)-phenyl-ethylamino)-pyrimidin-4-yl]-6,7,8,9-tetrahydro-pyrimido[1,2-a]pyrimidin-4-one]"
12,≤ 20 µM,"O=c1cc(-c2ccccc2)cc2n1CCCN2c1ccnc(NCCc2ccc(Cl)cc2Cl)n1 [Example 77, 1-{2-[2-(2,4-Dichloro-phenyl)-ethylamino]-pyrimidin-4-yl}-8-phenyl-1,2,3,4-tetrahydro-pyrido[1,2-a]pyrimidin-6-one]"
